Source: patent publication US20070054916A1, “Aryl nitrogen-containing bicyclic compounds and methods of use” (Amgen Inc., priority 2004, published 2007)

Legend:
[1] = tested on: production of TNF by monocytes activated with bacterial lipopolysaccharide (LPS); test: Lipopolysaccharide-activated monocyte TNF production assay; format: cell-based; details: Homo sapiens, read-out: IC50 values in the monocyte assay (LPS induced TNF release)
In short: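 Adherent human PBMC-derived monocytes (~70%) in DMEM/2% FCS were pre-incubated 60 min with nine two-fold compound dilutions, then stimulated with E. coli K532 LPS (added as 30 ng/ml solution) for 4 h at 37 °C. Supernatant TNF-α was measured by sandwich ELISA. IC50 was taken from a polynomial fit of TNF versus compound concentration.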

[2] = molecular target: LCK KD GST (225-509) (Homo sapiens, UniProt P06239); test: LCK Homogenous Time Resolved Flourescent (HTRF) kinase assay; details: average IC50 value in the human HTRF assay for the inhibition of the Lck kinase enzyme
Chain of LCK KD GST (225-509) (P06239 225-509): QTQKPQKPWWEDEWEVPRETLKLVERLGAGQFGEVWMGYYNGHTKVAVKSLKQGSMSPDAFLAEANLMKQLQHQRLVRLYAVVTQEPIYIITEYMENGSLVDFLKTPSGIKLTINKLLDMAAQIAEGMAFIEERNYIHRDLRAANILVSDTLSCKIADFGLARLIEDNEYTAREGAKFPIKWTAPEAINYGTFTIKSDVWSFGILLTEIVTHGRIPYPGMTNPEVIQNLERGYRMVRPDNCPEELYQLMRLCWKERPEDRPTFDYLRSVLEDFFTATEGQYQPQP

Structure (SMILES) | IC50 [1] [µM] | IC50 [2] [µM]
Cc1ccc(C(=O)Nc2cccc(NC(=O)CN3CCOCC3)c2C)cc1-c1ccc2nc(N)ncc2c1 [Example 56, 3-(2-Amino-6-quinazolinyl)-4-methyl-N-(2-methyl-3-((4-morpholinylacetyl)amino)phenyl)benzamide] | ≤ 25 | ≤ 1
COc1c(C(=O)Nc2cccc(C(F)(F)F)c2)cc(-c2ccc3nc(N)ncc3c2)c(OC)c1OC [Example 109, 5-(2-amino-6-quinazolinyl)-2,3,4-tris(methyloxy)-(trifluoromethyl)-N-(3-phenyl)benzamide] | ≤ 25 | ≤ 1
COc1c(C(=O)Nc2cc(C(F)(F)F)ccc2N(C)CCCN(C)C)cc(-c2ccc3nc(N)ncc3c2)c(OC)c1OC [Example 110, 5-(2-amino-6-quinazolinyl)-N-(2-((3-(dimethylamino)propyl)methyl)amino-5-(trifluoromethyl)phenyl)-2,3,4-tris(methyloxy)benzamide] | ≤ 25 | ≤ 1
CNc1ncc2cc(-c3cccc(C(=O)Nc4cccc(OC(F)(F)F)c4)c3C)cnc2n1 [Example 183, 2-methyl-3-(2-(methylamino)pyrido [2,3-d]pyrimidin-6-yl)-N-(3-((trifluoromethyl)oxy)phenyl)benzamide] | ≤ 25 | ≤ 1
CNc1ncc2cc(-c3cc(C(=O)Nc4ccc(OC)c(C(F)(F)F)c4)ccc3C)cnc2n1 [Example 184, 4-methyl-3-(2-(methylamino)pyrido [2,3-d]pyrimidin-6-yl)-N-(4-(methyloxy)-3-(trifluoromethyl)phenyl)benzamide] | ≤ 25 | ≤ 1
